According to ChEMBL document CHEMBL1201862, “PubChem BioAssay data set” (2004):
Each block holds one molecule with its values, some of them ahead of it. Active and inactive are the calls of the source.

Assays:
[1] = biological target: NAD-dependent protein deacylase sirtuin-5, mitochondrial (Homo sapiens, UniProt Q9NXA8); test: SIRT5 deacylase inhibitors, dose response, biochemical, fluorescence imaging, cherry-pick, set 6 (AID 720597)
[2] = HEK293T cell cytotoxicity, dose response, cytotoxicity control, luminescence plate reader, powder samples, set 4 (AID 651863); assay type: functional, cell-based; conditions: HEK293
[3] = MC4R antagonists, dose response, counter-screen for LGR2 antagonist project, cell-based, plate reader, cherry pick (AID 743444); assay type: functional;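 further: transfected HEK 293 cells stimulated with alpha-MSH peptide; potency of inhibitors of the alpha-MSH evoked signal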
[4] = LGR2 antagonists, dose response, cell-based, HEK293, CRE-luciferase reporter, cherry pick, set 2 (AID 743343); assay type: functional;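 further: transfected cells were stimulated with diluted bursicon conditioned medium after compound addition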
[5] = HepG2 cell cytotoxicity, dose response, cytotoxicity control, cherry-picks, set 5 (AID 1053118); assay type: functional, cell-based
[6] = A549 cell cytotoxicity, dose response, cytotoxicity control, cherry-picks, 26 µM top dose (AID 1053119); assay type: functional, cell-based
[7] = HEK293 cell cytotoxicity, dose response, cytotoxicity control, cherry-picks, set 5 (AID 1053117); assay type: functional, cell-based
[8] = A549 cell cytotoxicity, dose response, cytotoxicity control, plate reader, cherry-pick, antagonist series (AID 743412); assay type: functional, cell-based
[9] = inhibitors of fibronectin matrix deposition, dose response, AH1F cells, Alexa488-FN fluorescence, cherry-picks (AID 1035475); assay type: functional, cell-based
[10] = HEK293 cell cytotoxicity, dose response, cytotoxicity control, plate reader, cherry-picked samples (AID 743446); assay type: functional, cell-based
[11] = HepG2 cell cytotoxicity, dose response, cytotoxicity control, plate reader, cherry-pick, antagonist series (AID 743416); assay type: functional, cell-based
[12] = BHK-21 cell cytotoxicity, cytotoxicity control for flavivirus guanylyltransferase probe project, secondary screen (AID 624078); assay type: functional
HEK293 [13] = test: cells; conditions: Homo sapiens
[14] = HepG2 cell cytotoxicity, dose response, cytotoxicity control for Shn3 inhibitor project, CellTiter-Glo, cherry-picked (AID 624134); assay type: functional, cell-based
[15] = biological target: T1, Nucleotide-binding oligomerization domain-containing protein 1 (Homo sapiens, UniProt Q9Y239); test: NOD1 signaling inhibitors, SAR follow-up, revised (AID 2333); assay type: functional
T1 sequence (Q9Y239 whole entry): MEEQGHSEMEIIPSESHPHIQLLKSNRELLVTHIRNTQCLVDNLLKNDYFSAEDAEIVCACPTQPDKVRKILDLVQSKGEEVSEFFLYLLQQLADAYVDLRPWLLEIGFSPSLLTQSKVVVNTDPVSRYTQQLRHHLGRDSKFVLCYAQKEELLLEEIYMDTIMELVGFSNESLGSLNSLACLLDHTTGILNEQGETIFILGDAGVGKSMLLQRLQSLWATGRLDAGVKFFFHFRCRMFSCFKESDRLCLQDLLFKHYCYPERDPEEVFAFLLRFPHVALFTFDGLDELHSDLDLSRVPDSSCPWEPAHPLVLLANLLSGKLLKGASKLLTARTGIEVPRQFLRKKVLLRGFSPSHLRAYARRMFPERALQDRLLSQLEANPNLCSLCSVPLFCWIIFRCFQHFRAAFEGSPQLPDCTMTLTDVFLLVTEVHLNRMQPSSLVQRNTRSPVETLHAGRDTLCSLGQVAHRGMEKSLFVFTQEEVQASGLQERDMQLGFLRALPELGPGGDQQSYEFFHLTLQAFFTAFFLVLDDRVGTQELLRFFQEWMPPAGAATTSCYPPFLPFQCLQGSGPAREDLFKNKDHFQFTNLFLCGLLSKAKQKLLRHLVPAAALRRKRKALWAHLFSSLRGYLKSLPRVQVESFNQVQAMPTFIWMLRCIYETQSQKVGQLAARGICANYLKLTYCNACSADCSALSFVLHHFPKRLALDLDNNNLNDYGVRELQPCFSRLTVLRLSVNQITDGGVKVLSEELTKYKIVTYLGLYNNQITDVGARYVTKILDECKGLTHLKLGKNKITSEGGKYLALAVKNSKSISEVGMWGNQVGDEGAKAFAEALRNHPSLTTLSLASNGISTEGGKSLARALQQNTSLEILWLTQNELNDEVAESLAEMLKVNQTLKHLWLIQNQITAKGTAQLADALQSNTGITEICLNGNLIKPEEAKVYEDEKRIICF

Tumor necrosis factor = Tumor necrosis factor (Homo sapiens, UniProt P01375); test: TNFa-triggered NF-kB activation inhibitors, SAR follow-up, cell-based, revised (AID 2337); assay type: functional
Tumor necrosis factor, sequence (P01375 whole entry): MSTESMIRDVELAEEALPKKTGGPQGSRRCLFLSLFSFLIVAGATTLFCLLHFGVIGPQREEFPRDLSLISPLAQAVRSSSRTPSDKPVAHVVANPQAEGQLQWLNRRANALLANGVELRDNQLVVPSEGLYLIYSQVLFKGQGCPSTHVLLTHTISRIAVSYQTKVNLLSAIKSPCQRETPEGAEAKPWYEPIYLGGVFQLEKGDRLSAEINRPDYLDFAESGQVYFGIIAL

[16] = reduction of Shn3 3'UTR firefly luciferase signal, dose response, Schnurri-3 inhibitor project, cell-based, Clone20 osteoblasts, cherry-pick, set 2 (AID 720490); assay type: functional;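 further: actives lower the luminescence signal as inhibitors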
[17] = Shn3 3'UTR reporter inhibitors, dose response, cell-based, Clone20 osteoblasts, firefly luciferase, cherry-picked (AID 624132); assay type: functional;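 further: firefly luciferase luminescence from reporter carrying the Shn3 3'UTR in osteoblasts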
HEK293 [18] = test: cells; assay type: functional, cell-based; conditions: Homo sapiens
HEK293 [19] = test: NOD2 signaling inhibitors in MDP-stimulated cells, cell-based, uHTS, luminescence (AID 2001); assay type: functional; conditions: Homo sapiens
HEK293 [20] = test: NOD1 signaling inhibitors, primary screen, cell-based, luminescence, uHTS (AID 1578); assay type: functional; conditions: Homo sapiens
HEK293 [21] = test: cells; assay type: functional, cell-based; conditions: Homo sapiens; remark: listed apart in the source
[22] = control 3'UTR Renilla luciferase suppression, dose response, counter-screen for Shn3 inhibitor project, cell-based, Clone20-Shn3RL, cherry-picked (AID 624133); assay type: functional
[23] = ADAM10 inhibitors, peptide cleavage, dose response, biochemical, QFRET (AID 743254);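 further: ADAM10 enzyme with the DM2 quenched FRET peptide as substrate; EDANS fluorescence gain as the protease cuts the substrate; inhibitor potency against ADAM10 proteolytic activity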
[24] = Luminescence Cell-Based Dose Retest to Confirm Inhibitors of Cancer Stem Cells. [Related pubchem assays (depositor defined):AID2717, AID2721]; assay type: functional; conditions: Homo sapiens
[25] = biological target: Disintegrin and metalloproteinase domain-containing protein 17 (Homo sapiens, UniProt P78536); test: ADAM17 protease inhibitors, dose response, counter-screen for ADAM10 exosite inhibitor project, biochemical, quenched FRET substrate (AID 743253)
[26] = biological target: Protein disulfide-isomerase (Homo sapiens, UniProt P07237); test: PDI inhibitors, insulin turbidity readout, confirmation, biochemical, dry powder samples, set 2 (AID 652146)
Protein disulfide-isomerase, sequence (P07237 whole entry): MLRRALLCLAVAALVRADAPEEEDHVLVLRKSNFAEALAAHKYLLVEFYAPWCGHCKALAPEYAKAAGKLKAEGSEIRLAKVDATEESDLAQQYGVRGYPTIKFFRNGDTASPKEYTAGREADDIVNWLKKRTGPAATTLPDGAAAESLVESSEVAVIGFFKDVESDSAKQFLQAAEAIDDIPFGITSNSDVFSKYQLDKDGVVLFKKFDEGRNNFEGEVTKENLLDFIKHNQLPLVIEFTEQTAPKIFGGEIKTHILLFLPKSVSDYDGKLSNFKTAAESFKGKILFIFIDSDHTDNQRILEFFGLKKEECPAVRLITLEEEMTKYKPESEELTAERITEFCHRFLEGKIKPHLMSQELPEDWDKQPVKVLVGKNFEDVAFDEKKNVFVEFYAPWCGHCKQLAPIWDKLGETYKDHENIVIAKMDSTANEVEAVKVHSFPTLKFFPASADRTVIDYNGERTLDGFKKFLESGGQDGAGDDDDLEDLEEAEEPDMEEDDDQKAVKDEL

[27] = biological target: 1-phosphatidylinositol 4,5-bisphosphate phosphodiesterase gamma-1 (Homo sapiens, UniProt P19174); test: Counterscreen for inhibitors of phospholipase C isozymes (PLC-B3): Fluorescence-based biochemical high throughput dose response assay to identify inhibitors of phospholipase C isozymes (PLC-gamma1).
1-phosphatidylinositol 4,5-bisphosphate phosphodiesterase gamma-1, sequence (P19174 whole entry): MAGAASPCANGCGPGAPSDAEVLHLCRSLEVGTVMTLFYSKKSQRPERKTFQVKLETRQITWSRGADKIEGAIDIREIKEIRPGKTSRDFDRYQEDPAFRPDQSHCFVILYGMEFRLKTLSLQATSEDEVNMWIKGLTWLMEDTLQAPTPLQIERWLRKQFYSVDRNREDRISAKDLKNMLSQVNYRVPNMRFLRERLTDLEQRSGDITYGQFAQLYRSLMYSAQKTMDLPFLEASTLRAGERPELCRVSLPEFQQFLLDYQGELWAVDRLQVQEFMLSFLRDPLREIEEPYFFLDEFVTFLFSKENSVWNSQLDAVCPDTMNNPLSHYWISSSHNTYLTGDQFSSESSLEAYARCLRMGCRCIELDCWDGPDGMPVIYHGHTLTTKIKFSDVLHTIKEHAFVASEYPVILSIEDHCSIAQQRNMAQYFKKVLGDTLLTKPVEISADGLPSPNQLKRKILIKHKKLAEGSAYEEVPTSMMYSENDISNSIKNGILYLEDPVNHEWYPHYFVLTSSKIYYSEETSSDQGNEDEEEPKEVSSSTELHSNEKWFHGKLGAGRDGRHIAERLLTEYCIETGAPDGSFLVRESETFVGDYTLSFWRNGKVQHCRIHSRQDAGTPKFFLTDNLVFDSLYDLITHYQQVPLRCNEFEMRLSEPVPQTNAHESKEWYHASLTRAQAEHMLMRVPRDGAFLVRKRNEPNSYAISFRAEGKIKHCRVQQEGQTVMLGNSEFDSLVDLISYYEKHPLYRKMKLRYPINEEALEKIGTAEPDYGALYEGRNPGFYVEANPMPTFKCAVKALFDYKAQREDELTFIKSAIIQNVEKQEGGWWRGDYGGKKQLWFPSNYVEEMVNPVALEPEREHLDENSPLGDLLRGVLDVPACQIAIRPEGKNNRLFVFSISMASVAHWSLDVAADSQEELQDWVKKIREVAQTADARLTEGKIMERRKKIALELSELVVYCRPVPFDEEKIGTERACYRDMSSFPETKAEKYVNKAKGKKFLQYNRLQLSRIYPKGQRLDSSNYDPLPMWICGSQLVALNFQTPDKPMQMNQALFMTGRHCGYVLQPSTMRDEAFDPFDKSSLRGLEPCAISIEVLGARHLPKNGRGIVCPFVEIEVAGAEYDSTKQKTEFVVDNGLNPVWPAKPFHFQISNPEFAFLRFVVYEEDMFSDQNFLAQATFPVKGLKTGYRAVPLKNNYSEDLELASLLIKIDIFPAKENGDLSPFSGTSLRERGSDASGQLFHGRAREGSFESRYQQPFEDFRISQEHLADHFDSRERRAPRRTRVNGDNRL

[28] = biological target: 1-phosphatidylinositol 4,5-bisphosphate phosphodiesterase beta-3 (Homo sapiens, UniProt Q01970); test: Fluorescence-based biochemical high throughput dose response assay to identify inhibitors of phospholipase C isozymes (PLC-B3).
Fatty acid synthase [29] = biological target: T2, Fatty acid synthase (Homo sapiens, UniProt P49327); test: FAS thioesterase domain inhibitors, dose response, biochemical, endpoint fluorescence intensity, uHTS hits (AID 624327); assay type: functional;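 further: fluorescence from hydrolysis of an O-methyl fluorescein acyl ester substrate by the enzyme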
T2 sequence (P49327 whole entry, the tested form may be a part): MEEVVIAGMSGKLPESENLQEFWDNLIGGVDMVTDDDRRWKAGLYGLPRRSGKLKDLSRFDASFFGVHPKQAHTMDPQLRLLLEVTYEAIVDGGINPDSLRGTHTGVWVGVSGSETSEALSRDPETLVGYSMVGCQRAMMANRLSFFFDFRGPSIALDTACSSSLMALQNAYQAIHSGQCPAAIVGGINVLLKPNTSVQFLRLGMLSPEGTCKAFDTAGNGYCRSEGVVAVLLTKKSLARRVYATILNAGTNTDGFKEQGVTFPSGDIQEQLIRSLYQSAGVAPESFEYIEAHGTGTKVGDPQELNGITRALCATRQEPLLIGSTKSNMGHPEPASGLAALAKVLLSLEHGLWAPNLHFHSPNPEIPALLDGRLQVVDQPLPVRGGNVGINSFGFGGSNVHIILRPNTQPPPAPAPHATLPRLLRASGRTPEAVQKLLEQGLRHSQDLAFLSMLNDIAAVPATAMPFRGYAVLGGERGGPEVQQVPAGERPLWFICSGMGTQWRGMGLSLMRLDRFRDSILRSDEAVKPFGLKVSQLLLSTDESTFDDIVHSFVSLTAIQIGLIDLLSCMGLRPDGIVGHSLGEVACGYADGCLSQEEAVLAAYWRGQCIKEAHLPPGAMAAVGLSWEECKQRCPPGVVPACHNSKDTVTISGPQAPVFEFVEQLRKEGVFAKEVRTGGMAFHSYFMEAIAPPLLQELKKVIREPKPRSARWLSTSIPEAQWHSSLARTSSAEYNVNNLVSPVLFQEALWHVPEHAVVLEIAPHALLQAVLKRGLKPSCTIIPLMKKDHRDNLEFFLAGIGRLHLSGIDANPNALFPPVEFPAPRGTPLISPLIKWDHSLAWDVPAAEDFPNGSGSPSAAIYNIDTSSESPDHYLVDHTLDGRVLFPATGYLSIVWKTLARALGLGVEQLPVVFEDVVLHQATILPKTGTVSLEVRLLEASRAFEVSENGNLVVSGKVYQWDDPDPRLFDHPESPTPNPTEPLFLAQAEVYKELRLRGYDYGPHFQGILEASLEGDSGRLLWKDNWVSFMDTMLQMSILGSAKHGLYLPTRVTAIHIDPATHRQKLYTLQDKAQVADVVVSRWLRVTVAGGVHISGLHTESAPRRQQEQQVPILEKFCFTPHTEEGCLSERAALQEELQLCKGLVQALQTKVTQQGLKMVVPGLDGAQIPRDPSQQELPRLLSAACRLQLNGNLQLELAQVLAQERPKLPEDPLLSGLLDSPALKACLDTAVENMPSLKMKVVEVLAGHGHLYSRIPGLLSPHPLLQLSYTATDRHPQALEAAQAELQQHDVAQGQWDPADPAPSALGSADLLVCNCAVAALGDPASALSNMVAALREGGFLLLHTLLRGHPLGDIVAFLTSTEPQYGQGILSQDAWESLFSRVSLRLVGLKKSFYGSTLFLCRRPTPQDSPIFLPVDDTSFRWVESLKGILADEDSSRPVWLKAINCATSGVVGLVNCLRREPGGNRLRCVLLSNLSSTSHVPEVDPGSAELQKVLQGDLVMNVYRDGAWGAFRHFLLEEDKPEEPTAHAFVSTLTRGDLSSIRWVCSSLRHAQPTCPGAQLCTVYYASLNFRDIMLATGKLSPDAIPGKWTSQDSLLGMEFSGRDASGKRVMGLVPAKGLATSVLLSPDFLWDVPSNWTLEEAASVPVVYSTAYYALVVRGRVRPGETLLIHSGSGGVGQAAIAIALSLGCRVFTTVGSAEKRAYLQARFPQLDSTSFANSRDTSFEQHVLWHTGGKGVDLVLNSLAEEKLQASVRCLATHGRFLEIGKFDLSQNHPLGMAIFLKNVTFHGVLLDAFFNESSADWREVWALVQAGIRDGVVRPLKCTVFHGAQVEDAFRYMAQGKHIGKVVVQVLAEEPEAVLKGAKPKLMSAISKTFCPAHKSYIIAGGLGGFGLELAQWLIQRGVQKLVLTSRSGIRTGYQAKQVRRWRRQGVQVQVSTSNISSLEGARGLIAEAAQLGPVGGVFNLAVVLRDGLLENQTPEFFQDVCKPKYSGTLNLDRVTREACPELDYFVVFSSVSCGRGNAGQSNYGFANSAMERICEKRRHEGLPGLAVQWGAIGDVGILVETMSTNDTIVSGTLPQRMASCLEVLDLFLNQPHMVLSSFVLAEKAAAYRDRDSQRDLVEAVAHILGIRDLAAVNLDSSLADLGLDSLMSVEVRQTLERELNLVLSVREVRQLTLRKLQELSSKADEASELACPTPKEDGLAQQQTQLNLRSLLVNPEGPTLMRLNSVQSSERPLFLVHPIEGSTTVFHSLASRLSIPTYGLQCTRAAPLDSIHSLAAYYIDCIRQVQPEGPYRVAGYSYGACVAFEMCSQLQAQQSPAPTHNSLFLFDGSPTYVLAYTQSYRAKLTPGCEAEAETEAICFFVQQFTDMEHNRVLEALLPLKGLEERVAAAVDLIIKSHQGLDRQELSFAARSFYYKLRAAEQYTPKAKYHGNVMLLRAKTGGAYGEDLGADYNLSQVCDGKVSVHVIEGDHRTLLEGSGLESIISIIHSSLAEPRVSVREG

Fatty acid synthase [30] = biological target: T2, Fatty acid synthase; test: FAS thioesterase domain inhibitors, SAR follow-up, biochemical, endpoint fluorescence intensity, powder samples (AID 652164); assay type: functional
Fatty acid synthase [31] = biological target: T2, Fatty acid synthase; test: FAS thioesterase domain inhibitors, dose response, biochemical, kinetic fluorescence intensity (AID 624326); assay type: functional;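 further: rate of fluorescence rise from hydrolysis of a fluorogenic O-methyl fluorescein ester substrate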
Protein Wnt-3a = Protein Wnt-3a (Mus musculus, UniProt P27467); test: SAR analysis of small molecule antagonists of Gli-SUFU in a Wnt3a luminescent reporter assay.; assay type: functional
Protein Wnt-3a, sequence (P27467 whole entry): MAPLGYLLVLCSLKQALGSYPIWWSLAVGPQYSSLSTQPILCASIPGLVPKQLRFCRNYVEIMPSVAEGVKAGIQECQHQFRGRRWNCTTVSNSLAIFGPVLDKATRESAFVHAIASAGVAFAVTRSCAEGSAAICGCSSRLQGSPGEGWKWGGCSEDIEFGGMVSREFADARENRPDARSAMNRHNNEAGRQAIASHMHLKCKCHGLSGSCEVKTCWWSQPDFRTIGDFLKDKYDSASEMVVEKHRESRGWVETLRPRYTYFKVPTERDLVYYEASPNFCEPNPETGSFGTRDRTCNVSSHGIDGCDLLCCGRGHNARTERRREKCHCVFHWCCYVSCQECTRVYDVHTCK

AC50 [1]: > 30 µM (inactive)
SMILES: C[C@@H]1CCCCO[C@H](CN(C)Cc2ccccc2)[C@H](C)CN([C@H](C)CO)C(=O)c2cc(NC(=O)CCC(F)(F)F)ccc2O1

SMILES: CC(=O)Nc1cc(NS(=O)(=O)c2c(C)cc(C)cc2C)c2ccccc2c1O
AC50 [2]: 32.3 µM (active)

SMILES: C[C@@H]1CN([C@H](C)CO)C(=O)c2cccc(NC(=O)Nc3ccc(C(F)(F)F)cc3)c2O[C@@H]1CN(C)C(=O)Nc1cccc2ccccc12
AC50 [3]: 14.3 µM (active)
AC50 [4]: 19.4 µM (active)
AC50 [5]: 32.5 µM (active)
AC50 [6]: 24.3 µM (active)
AC50 [7]: 29.2 µM (active)
AC50 [8]: 16.4 µM (active)
AC50 [9]: 7.47 µM (active)
AC50 [10]: 14.8 µM (active)
AC50 [11]: 19.6 µM (active)

SMILES: Cc1cc(F)ccc1S(=O)(=O)Nc1cc(SCC(=O)O)c(O)c2ccccc12
CC50 [12]: 10.7 µM (active)

SMILES: CC1Cc2cc(S(=O)(=O)N3CCN(c4ccc(Cl)cc4)CC3)ccc2N1C(=O)C1CC1 (stereo not drawn)
IC50 (HEK293 [13]): > 20 µM (inactive)
AC50 [14]: 64.6 µM (active)
IC50 [15]: 5.6 µM (active)
IC50 (Tumor necrosis factor): 9.52 µM (active)
AC50 [16]: 5 µM (active)
AC50 [17]: 4.26 µM (active)
IC50 (HEK293 [18]): 2.22 µM (active)
IC50 (HEK293 [19]): 4.43 µM (active)
EC50 (HEK293 [20]): > 20 µM (inactive)
IC50 (HEK293 [21]): > 20 µM (inactive)
AC50 [22]: 25.4 µM (active)

SMILES: Cc1ccc(S(=O)(=O)Nc2ccc(-c3csc(-c4ccccc4)n3)cc2)cc1
IC50 [23]: > 69.5 µM (inactive)
AC50 [24]: 3.5 µM (active)
IC50 [25]: > 69.5 µM (inactive)

AC50 [26]: > 30 µM (inactive)
SMILES: CCNC(=O)C1(CCOc2ccccc2)CCN(Cc2ccc(O)c(Cl)c2)CC1

IC50 [27]: > 122 µM (inactive)
IC50 [28]: > 122 µM (inactive)
SMILES: CCCCN=C(S)NNC(=O)c1csc(CC)c1

IC50 (Fatty acid synthase [29]): 0.614 µM (active)
IC50 (Fatty acid synthase [30]): 0.874 µM (active)
IC50 (Fatty acid synthase [31]): 0.53 µM (active)
SMILES: CC(C)C(=O)Nc1nc(-c2ccc(S(=O)(=O)N3CCOCC3)cc2)cs1

IC50 (Protein Wnt-3a): > 21.8 µM (inactive)
SMILES: N#Cc1cccc(C(=O)Nc2cc(N3CCCCC3)ncn2)c1
